Source: US10344039B2, “Macrocyclic spirocarbamate derivatives as factor XIa inhibitors, pharmaceutically acceptable compositions and their use” (MERCK SHARP & DOHME CORP., priority 2015, dated 2019)

Assays:
[1] = biological target: T1, purified human Factor XIa (Homo sapiens, UniProt P03951); experiment: Factor XIa Assay; type: biochemical; conditions: purified human Factor XIa 40 pM; substrate Z-Gly-Pro-Arg-AFC 100 μM; 50 mM HEPES pH 7.4; read-out: Hu FXIa Ki
T1 construct: purified human Factor XIa; purchased Sekisui Diagnostics
Protocol: The effectiveness of a compound of the present invention as an inhibitor of Coagulation Factor XIa can be determined using a relevant purified serine protease, and an appropriate synthetic substrate. The rate of hydrolysis of the chromogenic or fluorogenic substrate by the relevant serine protease was measured both in the absence and presence of compounds of the present invention. Assays were conducted at room temperature or at 37° C. […] A decrease in the rate of fluorescence change in the presence of inhibitor is indicative of enzyme inhibition. Such methods are known to one skilled in the art. The results of this assay are expressed as the inhibitory constant, Ki.
Factor XIa determinations were made in 50 mM HEPES buffer at pH 7.4 containing 150 mM NaCl, 5 mM CaCl2, and 0.1% PEG 8000 (polyethylene glycol; JT Baker or Fisher Scientific). Determinations were made using purified human Factor XIa at a final concentration of 40 pM (Sekisui Diagnostics) and he synthetic substrate, Z-Gly-Pro-Arg-AFC, TFA salt (Sigma #C0980) at a concentration of 100 μM.
Activity assays were performed by diluting a stock solution of substrate at least tenfold to a final concentration ≤0.1 Km into a solution containing enzyme or enzyme equilibrated with inhibitor. Times required to achieve equilibration between enzyme and inhibitor were determined in control experiments. Initial velocities of product formation in the absence (Vo) or presence of inhibitor (Vi) were measured. Assuming competitive inhibition, and that unity is negligible compared Km/[S], [I]/e, and [I]/e (where [S], [I], and e respectively represent the total concentrations, of substrate, inhibitor and enzyme), the equilibrium constant (Ki) for dissociation of the inhibitor from the enzyme can be obtained from the dependence of Vo/Vi on [I] shown in the following equation. Vo/Vi=1+[I]/Ki
The activities shown by this assay indicate that the compounds of the invention may be therapeutically useful for treating or preventing various cardiovascular and/or cerebrovascular thromboembolic conditions in patients suffering from unstable angina, acute coronary syndrome, refractory angina, myocardial infarction, transient ischemic attacks, atrial fibrillation, stroke such as thrombotic stroke or embolic stroke, venous thrombosis, coronary and cerebral arterial thrombosis, cerebral and pulmonary embolism, atherosclerosis, deep vein thrombosis, disseminated intravascular coagulation, and reocclusion or restenosis of recanalized vessels. The Ki values measured for each of the example compounds of the invention using this assay are reported in the tables above (as “Hu FXIa Ki (nM)”).

[2] = biological target: T2, purified Human plasma kallikrein (Homo sapiens, UniProt P03952); experiment: Kallikrein Assay; type: biochemical; conditions: purified Human plasma kallikrein 0.5 nM; substrate Acetyl-K-P-R-AFC; 50 mM HEPES pH 7.4; Ki from IC50 by Cheng Prusoff equation; read-out: Hu P. Kallikrein
T2 construct: yields a heavy chain (371 amino acids) and a light chain (248 amino acids); purchased Enzyme Research Laboratories
Protocol: The effectiveness of a compound of the present invention as an inhibitor of Kallikrein can be determined using a relevant purified serine protease, and an appropriate synthetic substrate. The rate of hydrolysis of the chromogenic or fluorogenic substrate by the relevant serine protease was measured both in the absence and presence of compounds of the present invention. Assays were conducted at room temperature or at 37° C. […] A decrease in the rate of fluorescence change in the presence of inhibitor is indicative of enzyme inhibition. Such methods are known to one skilled in the art. The results of this assay are expressed as the inhibitory constant, Ki. Kallikrein determinations were made in 50 mM HEPES buffer at pH 7.4 containing 150 mM NaCl, 5 mM CaCl2, and 0.1% PEG 8000 (polyethylene glycol; Fisher Scientific). Determinations were made using purified Human plasma kallikrein at a final concentration of 0.5 nM (Enzyme Research Laboratories) and the synthetic substrate, Acetyl-K—P-R-AFC (Sigma # C6608) at a concentration of […]. Activity assays were performed by diluting a stock solution of substrate at least tenfold to a final concentration ≤0.2 Km into a solution containing enzyme or enzyme equilibrated with inhibitor. Times required to achieve equilibration between enzyme and inhibitor were determined in control experiments. The reactions were performed under linear progress curve conditions and fluorescence increase measured at 405 Ex/510 Em nm. Values were converted to percent inhibition of the control reaction (after subtracting 100% Inhibition value). IC50 was determined by inflection point from a four parameter logistic curve fit. Ki was calculated using the Cheng Prusoff equation, Ki=IC50/(1+([S]/Km)). The activities shown by this assay indicate that the compounds of the invention may be therapeutically useful for treating or preventing various cardiovascular and/or cerebrovascular thromboembolic conditions in patients suffering from unstable angina, acute coronary syndrome, refractory angina, myocardial infarction, transient ischemic attacks, atrial fibrillation, stroke such as thrombotic stroke or embolic stroke, venous thrombosis, coronary and cerebral arterial thrombosis, cerebral and pulmonary embolism, atherosclerosis, deep vein thrombosis, disseminated intravascular coagulation, and reocclusion or restenosis of recanalized vessels.

T1 sequence (P03951 388-625 limits assumed): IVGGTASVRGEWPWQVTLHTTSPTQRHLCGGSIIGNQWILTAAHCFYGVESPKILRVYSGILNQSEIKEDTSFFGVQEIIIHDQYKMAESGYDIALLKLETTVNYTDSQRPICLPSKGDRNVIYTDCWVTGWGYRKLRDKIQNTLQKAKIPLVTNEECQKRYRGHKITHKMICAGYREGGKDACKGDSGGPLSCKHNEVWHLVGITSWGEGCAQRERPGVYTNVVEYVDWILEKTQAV
T1 sequence (P03951 19-387 partner limits assumed): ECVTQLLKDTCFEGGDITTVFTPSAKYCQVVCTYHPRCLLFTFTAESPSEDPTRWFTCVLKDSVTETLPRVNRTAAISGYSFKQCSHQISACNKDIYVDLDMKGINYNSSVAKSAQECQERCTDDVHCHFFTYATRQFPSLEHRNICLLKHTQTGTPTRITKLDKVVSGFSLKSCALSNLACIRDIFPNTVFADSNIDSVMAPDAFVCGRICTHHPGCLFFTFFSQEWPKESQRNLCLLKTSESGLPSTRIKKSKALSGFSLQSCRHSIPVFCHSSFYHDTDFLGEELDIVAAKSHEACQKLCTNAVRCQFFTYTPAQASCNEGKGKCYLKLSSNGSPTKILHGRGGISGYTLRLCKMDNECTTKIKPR
T2 sequence (P03952 391-638 limits assumed): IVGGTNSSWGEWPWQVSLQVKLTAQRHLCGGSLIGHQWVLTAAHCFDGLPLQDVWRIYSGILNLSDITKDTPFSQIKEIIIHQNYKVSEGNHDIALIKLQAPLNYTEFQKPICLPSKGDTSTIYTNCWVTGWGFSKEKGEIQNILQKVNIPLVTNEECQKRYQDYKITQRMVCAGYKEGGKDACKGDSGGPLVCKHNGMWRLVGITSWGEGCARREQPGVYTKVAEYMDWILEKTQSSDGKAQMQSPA
T2 sequence (P03952 20-390 partner limits assumed): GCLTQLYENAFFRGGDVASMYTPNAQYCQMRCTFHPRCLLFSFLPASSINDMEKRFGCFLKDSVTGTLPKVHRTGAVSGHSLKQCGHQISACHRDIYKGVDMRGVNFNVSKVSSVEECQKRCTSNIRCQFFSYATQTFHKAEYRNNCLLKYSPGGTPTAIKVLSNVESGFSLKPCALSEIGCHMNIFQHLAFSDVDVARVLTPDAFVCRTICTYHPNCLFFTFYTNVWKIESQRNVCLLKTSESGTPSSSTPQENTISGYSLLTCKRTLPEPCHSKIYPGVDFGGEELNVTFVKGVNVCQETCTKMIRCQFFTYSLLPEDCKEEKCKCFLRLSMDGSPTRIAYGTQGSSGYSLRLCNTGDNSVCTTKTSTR

Row | Structure (SMILES) | Ki [1] [nM] | Ki [2] [nM]
1 | COC(=O)Nc1ccc2c(c1)NC(=O)CCCCC(C(=O)N1CC[C@@]3(C1)OC(=O)Nc1ccc(Cl)c(F)c13)c1nc-2c[nH]1 (mixture of isomers) [Example 4, methyl ((Z)-9-((R)-6-chloro-5-fluoro-2-oxo-1,2-dihydrospiro[benzo[d][1,3]oxazine-4,3′-pyrrolidine]-1′-carbonyl)-4-oxo-1^1H-3-aza-1(4,2)-imidazola-2(1,2)-benzenacyclononaphane-2^4-yl)carbamate] | 0.86 | 1.24
2 | COC(=O)Nc1ccc2c(c1)NC(=O)CCCCC(C(=O)N1CCC[C@@]3(C1)OC(=O)Nc1ccc(Cl)c(F)c13)c1nc-2c(Cl)[nH]1 (mixture of isomers) [Example 8, methyl ((Z)-1^5-chloro-9-((R)-6-chloro-5-fluoro-2-oxo-1,2-dihydrospiro[benzo[d][1,3]oxazine-4,3′-piperidine]-1′-carbonyl)-4-oxo-1^1H-3-aza-1(4,2)-imidazola-2(1,2)-benzenacyclononaphane-2^4-yl)carbamate] | 0.25 | 0.56
3 | COC(=O)Nc1ccc2c(c1)NC(=O)CCCCC(C(=O)N1CC[C@@]3(C1)OC(=O)Nc1ccc(Cl)c(F)c13)c1nc-2c(Cl)[nH]1 (mixture of isomers) [Example 9, methyl ((Z)-1^5-chloro-9-((R)-6-chloro-5-fluoro-2-oxo-1,2-dihydrospiro[benzo[d][1,3]oxazine-4,3′-pyrrolidine]-1′-carbonyl)-4-oxo-1^1H-3-aza-1(4,2)-imidazola-2(1,2)-benzenacyclononaphane-2^4-yl)carbamate] | 0.34 | 0.57
4 | COC(=O)Nc1ccc2c(c1)NC(=O)[C@H](C)CCCC(C(=O)N1CC[C@@]3(C1)OC(=O)Nc1ccc(Cl)c(F)c13)c1nc-2c(Cl)[nH]1 (mixture of isomers) [Example 11] | 0.74 | 1.32
5 | COC(=O)Nc1ccc2c(c1)NC(=O)CCCCC(C(=O)N1CCC[C@@]3(C1)OC(=O)Nc1ccc(Cl)c(F)c13)c1nc-2c(C)[nH]1 (mixture of isomers) [Example 12, methyl ((Z)-9-((R)-6-chloro-5-fluoro-2-oxo-1,2-dihydrospiro[benzo[d][1,3]oxazine-4,3′-piperidine]-1′-carbonyl)-1^5-methyl-4-oxo-1^1H-3-aza-1(4,2)-imidazola-2(1,2)-benzenacyclononaphane-2^4-yl)carbamate] | 2.7 | 1.28
6 | O=C1CCCCC(C(=O)N2CC[C@@]3(C2)OC(=O)Nc2ccc(Cl)c(F)c23)c2cc(ccn2)-c2cc3ccc(=O)[nH]c3cc2N1 (mixture of isomers) [Example 26, 3-((R)-6-chloro-5-fluoro-2-oxo-1,2-dihydrospiro[benzo[d][1,3]oxazine-4,3′-pyrrolidine]-1′-carbonyl)-1^1,1^2-dihydro-9-aza-1(6,7)-quinolina-2(4,2)-pyridinacyclononaphane-1^2,8-dione] | 3.93 | 1.22
7 | O=C1CCCCC(C(=O)N2CCC[C@@]3(C2)OC(=O)Nc2ccc(Cl)c(F)c23)c2cc(ccn2)-c2cc3ccc(=O)[nH]c3cc2N1 (mixture of isomers) [Example 27, 3-((R)-6-chloro-5-fluoro-2-oxo-1,2-dihydrospiro[benzo[d][1,3]oxazine-4,3′-piperidine]-1′-carbonyl)-1^1,1^2-dihydro-9-aza-1(6,7)-quinolina-2(4,2)-pyridinacyclononaphane-1^2,8-dione] | 13 | 0.6
8 | CCOC(=O)C1CCCCC(C(=O)N2CCC[C@@]3(C2)OC(=O)Nc2ccc(Cl)c(F)c23)c2nc(c[nH]2)-c2ccc(NC(=O)OC)cc2N1 (mixture of isomers) [Example 32, ethyl (Z)-9-((R)-6-chloro-5-fluoro-2-oxo-1,2-dihydrospiro[benzo[d][1,3]oxazine-4,3′-piperidine]-1′-carbonyl)-2^4-((methoxycarbonyl)amino)-1^1H-3-aza-1(4,2)-imidazola-2(1,2)-benzenacyclononaphane-4-carboxylate] | 4.94 | 15.5
9 | COC(=O)Nc1ccc2c(c1)NC(=O)CCCC[C@@H](C(=O)N1CC[C@@]3(C1)OC(=O)Nc1ccc(Cl)cc13)c1nc-2c[nH]1 (single isomer, unassigned) [Example 1a] | 2.37 | 1.99
10 | COC(=O)Nc1ccc2c(c1)NC(=O)CCCC[C@@H](C(=O)N1CC[C@@]3(C1)OC(=O)Nc1ccc(Cl)cc13)c1nc-2c(Cl)[nH]1 (single isomer, unassigned) [Example 6a] | 0.37 | 0.69
11 | COC(=O)Nc1ccc2c(c1)NC(=O)CCCC[C@H](C(=O)N1CC[C@@]3(C1)OC(=O)Nc1ccc(Cl)cc13)c1nc-2c(Cl)[nH]1 (single isomer, unassigned) [Example 6b] | 16 | 32
12 | COC(=O)Nc1ccc2c(c1)NC(=O)CCCC[C@@H](C(=O)N1CCC[C@@]3(C1)OC(=O)Nc1ccc(Cl)c(F)c13)c1nc-2c(C)[nH]1 (single isomer, unassigned) [Example 12b] | 0.93 | 1.29
13 | COC(=O)Nc1ccc2c(c1)NC(=O)C(C)CCCC(C(=O)N1CCC[C@@]3(C1)OC(=O)Nc1ccc(Cl)cc13)c1cc-2ccn1 (single isomer, unassigned) [Example 15a] | 31.1 | 1.7
14 | COC(=O)Nc1ccc2c(c1)NC(=O)CCCC[C@@H](C(=O)N1CC[C@@]3(C1)OC(=O)Nc1ccc(Cl)c(F)c13)c1cccc-2n1 (single isomer, unassigned) [Example 23b] | 44.2 | 8.5
15 | CCOC(=O)C1CCCCC(C(=O)N2CCC[C@@]3(C2)OC(=O)Nc2ccc(Cl)c(F)c23)c2nc(c[nH]2)-c2ccc(NC(=O)OC)cc2N1 (single isomer, unassigned) [Example 32b] | 0.62 | 1.42
16 | COC(=O)Nc1ccc2c(c1)NC(=O)CCCC[C@@H](C(=O)N1CCC[C@@]3(C1)OC(=O)Nc1ccc(Cl)cc13)c1nc-2c[nH]1 [Example 3a, methyl ((R,Z)-9-((R)-6-chloro-2-oxo-1,2-dihydrospiro[benzo[d][1,3]oxazine-4,3′-piperidine]-1′-carbonyl)-4-oxo-1^1H-3-aza-1(4,2)-imidazola-2(1,2)-benzenacyclononaphane-2^4-yl)carbamate] | 2.74 | 0.82
17 | COC(=O)Nc1ccc2c(c1)NC(=O)CCCC[C@@H](C(=O)N1CCC[C@@]3(C1)OC(=O)Nc1ccc(Cl)cc13)c1nc-2c(Cl)[nH]1 [Example 7a, methyl ((R,Z)-1^5-chloro-9-((R)-6-chloro-2-oxo-1,2-dihydrospiro[benzo[d][1,3]oxazine-4,3′-piperidine]-1′-carbonyl)-4-oxo-11H-3-aza-1(4,2)-imidazola-2(1,2)-benzenacyclononaphane-2^4-yl)carbamate] | 0.42 | 0.39
